Assay results published in article doi:10.1101/2021.06.15.448479v1 (biorxiv, 2021).

T1: ACER3 (Homo sapiens, UniProt Q9NUN7)
T1 sequence (Q9NUN7 1-267): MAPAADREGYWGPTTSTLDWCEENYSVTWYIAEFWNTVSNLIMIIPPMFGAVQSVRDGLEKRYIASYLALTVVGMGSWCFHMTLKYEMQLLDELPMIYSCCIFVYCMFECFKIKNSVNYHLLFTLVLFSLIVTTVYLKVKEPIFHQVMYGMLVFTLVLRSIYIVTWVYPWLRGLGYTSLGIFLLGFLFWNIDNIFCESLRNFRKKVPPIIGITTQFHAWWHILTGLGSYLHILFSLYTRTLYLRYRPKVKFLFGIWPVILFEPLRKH

B1: ACER3 (Homo sapiens) (protein)
chain: T1 sequence (Q9NUN7 1-267)

How the values were obtained:
[1] = molecular target: T1, ACER3; experiment: biochemical
[2] = molecular target: T1, ACER3; experiment: FRETcer1 hydrolysis, FRET, crude membranes of overexpressing Sf9 cells; format: cell-based
[3] = molecular target: T1, ACER3; experiment: as above; format: biochemical
[4] = substrate: Cc1c(Br)c(=O)oc2cc3c(cc12)OC(CC(=O)NCCCCCC(=O)N[C@@H](CO)[C@H](O)/C=C/CCCCCCCCCNc1ccc([N+](=O)[O-])c2nonc12)O3; experiment: cells, lysate or membranes; details: detergent-purified ACER3

Molecule	IC50 [1] [µM]	IC50 [2] [nM]	also measured
CCCCCCCCCCCCCCCC(=O)O [palmitic acid]	12.6		
CCCC(C)NC(=O)c1ccc(Cl)c(Cl)c1 (stereo not shown) [NSC405020]		5290 ± 2160	
CC(C)[C@H]1CC[C@H](C(=O)Nc2ccc(Cl)c(Cl)c2)CC1 [compound 03, N-(3,4-dichlorophenyl)-4-isopropylcyclohexane-1-carboxamide]			IC50 [3]: 710 nM
CCCCNC(=O)Cc1noc(C(C)c2cccc(O)c2)n1 (stereo not shown) [Z3016340412]		1210 ± 740	
O=C(Nc1cnn(C2CCC2)c1)N1CCC(c2cccc(F)c2)CC1 [Z2956776388]		1040 ± 350	
CCCCC/C=C\C/C=C\CCCCCCCC(=O)O [linoleic acid]	1.5		
CCCCCCCCCCCCCCCCCC(=O)O [stearic acid]	29.3		
CCCC(C)C(=O)Nc1ccc(Cl)c(C(F)(F)F)c1 (stereo not shown) [compound 02, Compound 02]			IC50 [3]: 700 nM
CCCCCCCC/C=C\CCCCCCCC(=O)O [oleic acid]	2.3		
CCCCCCCCCCCCCC(=O)O [myristic acid]	9.3		
Cc1noc(CCNC(=O)N2CCC(c3ccc(F)c(F)c3)CC2)n1 [Z1124621112]		1310 ± 950	
CCCCCC/C=C\CCCCCCCC(=O)O [palmitoleic acid]	1.9		
B1			Km [4]: 10.76 ± 2.03 µM
